This is an account of results in patent publication US20230310428A1, “EGFR INHIBITOR AND PREPARATION METHOD AND USE THEREOF” (HONGYUN BIOTECH CO., LTD., priority 2020, published 2023).

SMILES strings stand for the structures. pIC50: −log10 of the molar value. Where only a bound is given, the exact number is not on record here.

Common to all, as to assay: Growth inhibitory activity of compounds on BaF3 cell lines stably transfected with kinase (MTS, 48 h)
Assay type in all cases: cell-based

Test [1] addresses T1, various mutants of kinase EGFR (BaF3 cell lines stably transfected with kinase) (Homo sapiens, UniProt P00533, T790M, form not given).
T1 construct: other: BaF3 cells stably transfected with EGFR Δ19Del/T790M; MTS, 48 h; other: BaF3 cell line stably transfected with EGFR Δ19Del/T790M; MTS, 48
To be noted: BaF3 cells stably transfected with EGFR Δ19Del/T790M, read-out: IC50, growth inhibition, Δ19Del/T790M. The gist of the method: (§1)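 Cells in DMEM or RPMI 1640 with 10% FBS were exposed to compound at 8 concentrations (top 10 µM, 1/3 steps, 0.1% DMSO) for 48 h at 37 °C, 5% CO2. MTS/PES was then added for 1-4 h and OD490 read; IC50 was fitted from growth inhibition versus 0.1% DMSO control.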

In test [2] the target is T2, various mutants of kinase EGFR (BaF3 cell lines stably transfected with kinase) (Homo sapiens, UniProt P00533).
T2 construct: other: BaF3 cells stably transfected with EGFR Δ19Del; MTS, 48 h; other: BaF3 cell line stably transfected with EGFR Δ19Del
To be noted: BaF3 cells stably transfected with EGFR Δ19Del, read-out: IC50, growth inhibition, Δ19Del. In a few lines:
as §1

Test [3] concerns the target T3, various mutants of kinase EGFR (BaF3 cell lines stably transfected with kinase) (Homo sapiens, UniProt P00533, L858R/T790M).
T3 construct: expressed in transfected cells; host or cells: BaF3
To be noted: BaF3 cells stably transfected with EGFR L858R/T790M, read-out: IC50, growth inhibition, L858R/T790M. The gist of the method: as §1

For test [4], the target named is T4, various mutants of kinase EGFR (BaF3 cell lines stably transfected with kinase) (Homo sapiens, UniProt P00533, C797S/L858R/T790M).
T4 construct: expressed in transfected cells; host or cells: BaF3
To be noted: BaF3 cells stably transfected with EGFR L858R/T790M/C797S, read-out: IC50, growth inhibition, L858R/T790M/C797S. The gist of the method: as §1

The target of test [5] is T5, various mutants of kinase EGFR (BaF3 cell lines stably transfected with kinase) (Homo sapiens, UniProt P00533, T790M/C797S, form not given).
T5 construct: other: BaF3 cells stably transfected with EGFR Δ19Del/T790M/C797S; MTS, 48; other: BaF3 cell line stably transfected with EGFR Δ19Del/T790M/C7
The conditions noted are these: BaF3 cells stably transfected with EGFR Δ19Del/T790M/C797S, read-out: IC50, growth inhibition, Δ19Del/T790M/C797S. In a few lines:
as §1

The target of test [6] is T6, various mutants of kinase EGFR (BaF3 cell lines stably transfected with kinase) (Homo sapiens, UniProt P00533, L858R).
T6 construct: expressed in transfected cells; host or cells: BaF3
The conditions noted are these: BaF3 cells stably transfected with EGFR L858R, read-out: IC50, growth inhibition, L858R. The gist of the method: as §1

T2 sequence (P00533 with tags, fused parts or gaps DEL746-750): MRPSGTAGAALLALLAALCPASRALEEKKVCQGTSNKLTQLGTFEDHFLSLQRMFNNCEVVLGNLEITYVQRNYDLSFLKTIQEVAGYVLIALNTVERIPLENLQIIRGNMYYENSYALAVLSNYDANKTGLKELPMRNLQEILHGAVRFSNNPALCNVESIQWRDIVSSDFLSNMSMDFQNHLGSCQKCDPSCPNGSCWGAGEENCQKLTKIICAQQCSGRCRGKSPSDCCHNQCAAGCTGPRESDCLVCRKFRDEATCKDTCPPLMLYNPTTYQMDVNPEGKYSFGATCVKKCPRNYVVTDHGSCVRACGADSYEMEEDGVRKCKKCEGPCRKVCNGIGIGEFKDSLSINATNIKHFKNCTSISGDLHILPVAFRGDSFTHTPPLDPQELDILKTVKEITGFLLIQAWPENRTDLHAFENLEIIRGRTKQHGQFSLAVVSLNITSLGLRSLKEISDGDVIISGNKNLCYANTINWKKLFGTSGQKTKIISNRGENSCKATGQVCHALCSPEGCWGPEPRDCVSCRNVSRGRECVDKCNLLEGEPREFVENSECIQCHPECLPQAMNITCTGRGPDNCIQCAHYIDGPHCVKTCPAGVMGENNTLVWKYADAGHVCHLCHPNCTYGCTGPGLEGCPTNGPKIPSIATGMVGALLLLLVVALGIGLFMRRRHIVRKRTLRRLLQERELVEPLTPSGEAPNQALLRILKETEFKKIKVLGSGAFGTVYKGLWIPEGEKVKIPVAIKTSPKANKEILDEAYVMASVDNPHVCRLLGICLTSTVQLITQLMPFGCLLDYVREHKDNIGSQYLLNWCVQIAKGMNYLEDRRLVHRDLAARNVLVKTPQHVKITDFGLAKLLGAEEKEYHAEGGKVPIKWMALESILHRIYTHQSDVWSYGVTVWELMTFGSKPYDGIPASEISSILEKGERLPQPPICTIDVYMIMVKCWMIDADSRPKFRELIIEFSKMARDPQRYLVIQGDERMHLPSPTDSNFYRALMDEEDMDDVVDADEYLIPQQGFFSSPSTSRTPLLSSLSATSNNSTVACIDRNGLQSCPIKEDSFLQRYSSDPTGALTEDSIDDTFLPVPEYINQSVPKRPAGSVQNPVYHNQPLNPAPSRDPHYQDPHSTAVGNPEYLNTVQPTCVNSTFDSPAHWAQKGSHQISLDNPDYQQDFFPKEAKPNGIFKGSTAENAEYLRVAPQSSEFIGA
T4 sequence (P00533 25-1210 T790M/C797S/L858R): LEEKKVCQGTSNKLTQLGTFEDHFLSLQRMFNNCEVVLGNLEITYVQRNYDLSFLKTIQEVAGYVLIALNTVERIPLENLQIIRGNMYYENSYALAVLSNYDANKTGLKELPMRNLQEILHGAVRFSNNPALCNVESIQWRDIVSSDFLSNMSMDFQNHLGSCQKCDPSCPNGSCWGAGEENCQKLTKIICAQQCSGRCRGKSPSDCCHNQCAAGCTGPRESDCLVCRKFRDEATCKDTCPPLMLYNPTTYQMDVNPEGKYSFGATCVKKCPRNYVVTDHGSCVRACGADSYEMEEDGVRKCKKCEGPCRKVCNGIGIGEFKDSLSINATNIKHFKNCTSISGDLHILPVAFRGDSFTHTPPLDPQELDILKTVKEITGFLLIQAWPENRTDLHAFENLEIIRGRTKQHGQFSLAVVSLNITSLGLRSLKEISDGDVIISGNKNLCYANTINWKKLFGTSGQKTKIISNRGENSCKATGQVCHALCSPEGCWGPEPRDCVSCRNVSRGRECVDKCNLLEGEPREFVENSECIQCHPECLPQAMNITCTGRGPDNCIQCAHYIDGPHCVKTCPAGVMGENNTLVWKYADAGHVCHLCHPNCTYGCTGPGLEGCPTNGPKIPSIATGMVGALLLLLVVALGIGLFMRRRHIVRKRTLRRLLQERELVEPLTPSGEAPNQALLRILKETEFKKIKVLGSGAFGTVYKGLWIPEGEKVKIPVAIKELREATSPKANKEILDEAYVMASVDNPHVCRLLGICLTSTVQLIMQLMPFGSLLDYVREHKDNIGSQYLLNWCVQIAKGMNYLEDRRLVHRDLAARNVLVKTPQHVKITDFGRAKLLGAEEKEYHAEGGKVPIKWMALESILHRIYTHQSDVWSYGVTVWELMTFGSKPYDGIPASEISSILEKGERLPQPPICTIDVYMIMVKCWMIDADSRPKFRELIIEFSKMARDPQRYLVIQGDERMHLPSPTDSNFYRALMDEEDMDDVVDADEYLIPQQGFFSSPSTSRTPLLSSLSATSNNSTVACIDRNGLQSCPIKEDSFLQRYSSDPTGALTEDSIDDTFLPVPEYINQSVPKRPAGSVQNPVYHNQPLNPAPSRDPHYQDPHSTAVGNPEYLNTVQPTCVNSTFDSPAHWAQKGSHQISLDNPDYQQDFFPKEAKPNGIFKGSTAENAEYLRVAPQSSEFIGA
T6 sequence (P00533 25-1210 L858R): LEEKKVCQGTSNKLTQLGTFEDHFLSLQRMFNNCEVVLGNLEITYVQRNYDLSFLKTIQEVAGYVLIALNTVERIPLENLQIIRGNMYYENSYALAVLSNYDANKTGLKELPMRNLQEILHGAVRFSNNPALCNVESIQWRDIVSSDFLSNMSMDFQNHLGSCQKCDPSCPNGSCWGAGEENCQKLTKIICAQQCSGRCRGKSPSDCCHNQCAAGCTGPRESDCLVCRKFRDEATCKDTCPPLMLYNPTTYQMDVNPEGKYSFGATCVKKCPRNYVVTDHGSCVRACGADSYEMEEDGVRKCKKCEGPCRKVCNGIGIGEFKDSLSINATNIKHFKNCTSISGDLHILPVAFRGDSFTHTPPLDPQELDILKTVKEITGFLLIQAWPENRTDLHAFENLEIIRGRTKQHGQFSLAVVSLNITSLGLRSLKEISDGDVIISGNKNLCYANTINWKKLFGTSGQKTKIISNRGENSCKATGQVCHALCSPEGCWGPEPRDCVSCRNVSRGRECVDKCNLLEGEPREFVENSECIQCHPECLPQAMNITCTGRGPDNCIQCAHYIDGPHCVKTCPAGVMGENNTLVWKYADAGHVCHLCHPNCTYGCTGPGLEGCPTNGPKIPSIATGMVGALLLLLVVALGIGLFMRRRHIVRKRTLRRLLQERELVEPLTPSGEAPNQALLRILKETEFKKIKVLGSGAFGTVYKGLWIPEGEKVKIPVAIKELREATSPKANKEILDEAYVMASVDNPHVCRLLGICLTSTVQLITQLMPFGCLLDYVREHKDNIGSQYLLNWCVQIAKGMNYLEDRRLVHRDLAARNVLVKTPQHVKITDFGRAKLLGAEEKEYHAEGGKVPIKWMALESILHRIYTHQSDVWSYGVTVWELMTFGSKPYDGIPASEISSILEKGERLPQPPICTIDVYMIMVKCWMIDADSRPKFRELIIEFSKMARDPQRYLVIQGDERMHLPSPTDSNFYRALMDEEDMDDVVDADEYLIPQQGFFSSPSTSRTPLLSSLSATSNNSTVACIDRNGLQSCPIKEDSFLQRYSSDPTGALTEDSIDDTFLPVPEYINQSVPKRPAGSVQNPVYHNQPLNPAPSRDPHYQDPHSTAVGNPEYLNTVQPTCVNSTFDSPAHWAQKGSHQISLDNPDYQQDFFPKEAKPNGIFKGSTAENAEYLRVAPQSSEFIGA
T5 sequence (P00533 with tags, fused parts or gaps DEL746-750/T790M/C797S, form open): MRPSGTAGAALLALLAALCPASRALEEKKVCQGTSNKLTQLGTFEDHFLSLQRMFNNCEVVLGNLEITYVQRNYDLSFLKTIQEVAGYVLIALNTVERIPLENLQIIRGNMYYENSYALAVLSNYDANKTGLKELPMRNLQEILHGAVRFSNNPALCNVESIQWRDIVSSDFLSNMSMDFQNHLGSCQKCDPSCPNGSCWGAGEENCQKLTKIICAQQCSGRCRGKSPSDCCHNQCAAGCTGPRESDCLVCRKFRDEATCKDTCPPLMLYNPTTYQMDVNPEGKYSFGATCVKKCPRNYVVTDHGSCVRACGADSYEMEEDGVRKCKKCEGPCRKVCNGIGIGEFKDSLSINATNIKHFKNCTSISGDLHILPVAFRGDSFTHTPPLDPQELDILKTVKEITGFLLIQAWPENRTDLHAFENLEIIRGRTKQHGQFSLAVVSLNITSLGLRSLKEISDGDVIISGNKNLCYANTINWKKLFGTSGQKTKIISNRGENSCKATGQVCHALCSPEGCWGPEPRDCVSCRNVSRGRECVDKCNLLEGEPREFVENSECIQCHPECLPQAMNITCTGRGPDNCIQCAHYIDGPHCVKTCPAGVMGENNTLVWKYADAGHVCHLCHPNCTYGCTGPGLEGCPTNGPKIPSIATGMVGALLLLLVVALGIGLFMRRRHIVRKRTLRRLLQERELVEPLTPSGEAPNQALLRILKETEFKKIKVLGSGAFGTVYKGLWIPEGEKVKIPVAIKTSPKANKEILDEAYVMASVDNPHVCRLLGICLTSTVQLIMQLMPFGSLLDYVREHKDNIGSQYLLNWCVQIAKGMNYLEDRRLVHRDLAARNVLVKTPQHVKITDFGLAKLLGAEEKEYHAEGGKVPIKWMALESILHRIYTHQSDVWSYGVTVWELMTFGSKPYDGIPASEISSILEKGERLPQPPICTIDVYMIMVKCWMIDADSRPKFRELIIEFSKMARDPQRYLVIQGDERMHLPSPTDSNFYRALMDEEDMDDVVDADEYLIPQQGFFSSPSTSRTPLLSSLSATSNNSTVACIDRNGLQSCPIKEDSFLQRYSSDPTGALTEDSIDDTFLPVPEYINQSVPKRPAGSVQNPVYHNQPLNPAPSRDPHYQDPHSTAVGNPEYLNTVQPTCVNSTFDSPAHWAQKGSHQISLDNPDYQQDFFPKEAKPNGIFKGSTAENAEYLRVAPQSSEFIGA

As for `CCc1cc(Nc2ncc(Br)c(Nc3ccc4nccnc4c3N(C3CC3)S(C)(=O)=O)n2)c(OC)cc1N1CCC(N(C)C)C1` (stereo not drawn) [Compound I-158], the pIC50 is no less than 7.30 in test [1]; 6.30 to 7.30 in test [2]; no less than 7.30 in test [3]; no less than 7.30 in test [4]; no less than 7.30 in test [5]; 6.30 to 7.30 in test [6].
With `COc1cc(N2CCC(N3CCN(C)CC3)CC2)c(C)cc1Nc1ncc(Cl)c(Nc2ccc3nccnc3c2N(C2CC2)S(C)(=O)=O)n1` [Compound I-159], the pIC50 in test [1], in test [2], in test [3], in test [4], in test [5] and in test [6] was no less than 7.30 each time.
On to `CCc1cc(Nc2ncc(Cl)c(Nc3ccc4nccnc4c3N(C3CC3)S(C)(=O)=O)n2)c(OC)cc1N1CCC(N2CCN(C)CC2)CC1` [Compound I-160], for which the pIC50 is no less than 7.30 in test [1]; no less than 7.30 in test [2]; no less than 7.30 in test [3]; no less than 7.30 in test [4]; no less than 7.30 in test [5]; 6.30 to 7.30 in test [6].
Consider `CCc1cc(Nc2ncc(Cl)c(Nc3ccc4nccnc4c3N(C3CC3)S(C)(=O)=O)n2)c(OC(F)(F)F)cc1N1CCC(N2CCN(C)CC2)CC1` [Compound I-161], for which the pIC50 in test [1], in test [2], in test [3], in test [4], in test [5] and in test [6] was 6.30 to 7.30 each time.
On to `CCc1cc(Nc2ncc(Cl)c(Nc3ccc4nccnc4c3N(C3CC3)S(C)(=O)=O)n2)c(OC)cc1N1CCC(N(C)C)CC1` [Compound I-162], for which the pIC50 in test [1], in test [2], in test [3], in test [4], in test [5] and in test [6] was no less than 7.30 each time.
As to `CCc1cc(Nc2ncc(Cl)c(Nc3ccc4nccnc4c3N(C3CC3)S(C)(=O)=O)n2)c(OC)cc1N1CCC(N(C)C)C1` (stereo not drawn) [Compound I-163], the pIC50 in test [1], in test [2], in test [3], in test [4], in test [5] and in test [6] was no less than 7.30 in each case.
For the compound `COc1nc(N2CCC(N3CCN(C)CC3)CC2)ccc1Nc1ncc(Cl)c(Nc2ccc3nccnc3c2N(C)S(C)(=O)=O)n1` [Compound I-164], the pIC50 in test [1] was 5.60 to 6.30; in test [2] it was 5.60 to 6.30; in test [3] it was 6.30 to 7.30; in test [4], 6.30 to 7.30; in test [5] it was 6.30 to 7.30; in test [6] it was 6.30 to 7.30.
`CN1CCN(C2CCN(c3ccc(Nc4ncc(Cl)c(Nc5ccc6nccnc6c5N(C)S(C)(=O)=O)n4)c(OC(F)(F)F)c3)CC2)CC1` [Compound I-166]: the pIC50 in test [1] is 6.30 to 7.30; in test [2], 6.30 to 7.30; in test [3] it was 6.30 to 7.30; in test [4], 6.30 to 7.30; in test [5], no less than 7.30; in test [6], 6.30 to 7.30.
Consider `COc1cc(N2CCC(N3CCN(C)CC3)CC2)c(CC2CC2)cc1Nc1ncc(Cl)c(Nc2ccc3nccnc3c2N(C)S(C)(=O)=O)n1` [Compound I-167], for which the pIC50 in test [1] was no less than 7.30; in test [2], 6.30 to 7.30; in test [3] it was no less than 7.30; in test [4], no less than 7.30; in test [5] it was no less than 7.30; in test [6], no less than 7.30.
Consider `COc1cc(N2CCC(N3CCN(C)CC3)CC2)c(Cc2ccccc2)cc1Nc1ncc(Cl)c(Nc2ccc3nccnc3c2N(C)S(C)(=O)=O)n1` [Compound I-168], for which the pIC50 in test [1] was 6.30 to 7.30; in test [2] it was 5.60 to 6.30; in test [3], 5.60 to 6.30; in test [4], 5.60 to 6.30; in test [5], 5.60 to 6.30; in test [6] it was 5.60 to 6.30.
`COc1cc(N2CCC(N(C)C)CC2)c(C)cc1Nc1ncc(Cl)c(Nc2ccc3nccnc3c2N(C)S(C)(=O)=O)n1` [Compound I-169]: the pIC50 in test [1], in test [2], in test [3], in test [4], in test [5] and in test [6] was no less than 7.30 each time.
With `CCc1cc(Nc2ncc(Cl)c(Nc3ccc4nccnc4c3N(C)S(C)(=O)=O)n2)c(OC)cc1N1CCC(N(C)C)CC1` [Compound I-170], the pIC50 in test [1], in test [2], in test [3], in test [4], in test [5] and in test [6] was no less than 7.30 each time.
Consider `COc1cc(N2CCN(C)CC2)c(C)cc1Nc1ncc(Cl)c(Nc2ccc3nccnc3c2N(C)S(C)(=O)=O)n1` [Compound I-171], for which the pIC50 in test [1] was no less than 7.30; in test [2], 6.30 to 7.30; in test [3], no less than 7.30; in test [4], no less than 7.30; in test [5] it was no less than 7.30; in test [6], no less than 7.30.
Turning to `CCc1cc(Nc2ncc(Cl)c(Nc3ccc4nccnc4c3N(C)S(C)(=O)=O)n2)c(OC)cc1N1CCN(C)CC1` [Compound I-172], the pIC50 in test [1], in test [2], in test [3], in test [4], in test [5] and in test [6] was no less than 7.30 each time.
Regarding `COc1cc(N2CCC(N(C)C)C2)c(C)cc1Nc1ncc(Cl)c(Nc2ccc3nccnc3c2N(C)S(C)(=O)=O)n1` (stereo not drawn) [Compound I-173], the pIC50 in test [1], in test [2], in test [3], in test [4], in test [5] and in test [6] was no less than 7.30 in each case.
`CCc1cc(Nc2ncc(Cl)c(Nc3ccc4nccnc4c3N(C)S(C)(=O)=O)n2)c(OC)cc1N1CCC(N(C)C)C1` (stereo not drawn) [Compound I-174]: the pIC50 in test [1], in test [2], in test [3], in test [4], in test [5] and in test [6] was no less than 7.30 each time.
For `COc1nc(N2CCC(N3CCN(C)CC3)CC2)ccc1Nc1ncc(F)c(Nc2ccc3nccnc3c2N(C)S(C)(=O)=O)n1` [Compound I-175], the pIC50 in test [1] is 5.60 to 6.30; in test [2], 5.60 to 6.30; in test [3], 5.60 to 6.30; in test [4], 5.60 to 6.30; in test [5], 6.30 to 7.30; in test [6], 5.60 to 6.30.
With `CCc1cc(Nc2ncc(F)c(Nc3ccc4nccnc4c3N(C)S(C)(=O)=O)n2)c(OC)nc1N1CCC(N2CCN(C)CC2)CC1` [Compound I-177], the pIC50 in test [1], in test [2], in test [3], in test [4], in test [5] and in test [6] was no less than 7.30 in each case.
On to `CN1CCN(C2CCN(c3ccc(Nc4ncc(F)c(Nc5ccc6nccnc6c5N(C)S(C)(=O)=O)n4)c(OC(F)(F)F)c3)CC2)CC1` [Compound I-178], for which the pIC50 in test [1] was 5.60 to 6.30; in test [2], 6.30 to 7.30; in test [3] it was 5.60 to 6.30; in test [4], 5.60 to 6.30; in test [5], 6.30 to 7.30; in test [6], 6.30 to 7.30.
